Laboratory results taken from US4833155A, “3-(ω-(3,5,-di-t-butyl-4-hydroxyphenyl)-alkanoyl)pyrroles, and anti-inflammatory uses thereof” (Syntex (U.S.A.) Inc., priority 1986, dated 1989).
“And” between values parts separate entries of the source, which are not always exact repeats. Equal entries are not always repeated.

Experiments:
[1] = tested on: adjuvant-induced arthritis (heat-killed Mycobacterium butyricum), hind paw weight increase; assay: Adjuvant-Induced Arthritis Assay "AI"; assay type: in vivo; conditions: rat, oral, day 18
Protocol: Anti-inflammatory activity is determined by the Adjuvant-Induced Arthritis ("AI") Assay, as is well accepted in the art. A modification of the assay described by Pearson, et al., supra., is performed as follows: Female Hla:(SD) BR rats weighing 160-180 g are randomly distributed to treatment groups of 12 animals, and given food and water ad libitum. Test materials are prepared fresh weekly as suspensions in carboxymethyl cellulose. The test animals are orally dosed with the suspensions in volumes of 1 ml twice per day Monday through Friday, and with 2 ml once per day on Saturdays and Sundays. […] At time 0, rats are injected intradermally in the proximal quarter of the tail with 0.1 ml of a mineral oil suspension of heat-killed Mycobacterium butyricum (Difco) at a concentration of 10 mg/ml. On day 18 the intensity of swelling in the four paws and tail is estimated visually and scored (0-4 for paws, 0-3 for tail) such that the total maximum score, indicating intense swelling of all four paws and tail, is 19. The animals are then sacrificed; the hind paws of each animal are removed and weighed. The percent inhibition is calculated by comparing the weight increase of the hind paws of the test animals versus the control animals.

[2] = tested on: carrageenan-induced rat paw inflammation; assay: Carrageenan-Induced Rat Paw Inflammation Assay "CI"; assay type: in vivo; conditions: oral
Protocol: Anti-inflammatory activity is determined by the Carrageenan-Induced Rat Paw Inflammation "CI" Assay, as is well accepted in the art. A modification of the assay described by Winter, et al., supra., is performed as follows:
Female albino rats (Sim: (SD)fbr) weighing 80-90 g receive the test materials orally in 1 ml aqueous solution at hour 0. One hour later (hr 1) 0.05 ml of a 1% solution (in aqueous 0.9% NaCl) of carrageenan is injected into the right hind paw to inflame the paw. The rats are sacrificed at hour 4, at which time both hind paws are removed and individually weighed. The percent increase in the weight of the inflamed paw over that of the opposite non-inflamed paw is calculated, and the results are reported according to the formula: [formula]

[3] = tested on: arachidonic acid-induced mouse ear edema; assay: Arachidonic Acid-Induced Mouse Ear Edema Assay "AAI"; assay type: in vivo; conditions: topical
Protocol: Topical anti-inflammatory activity is determined by the Arachidonic Acid-Induced Mouse Ear Edema "AAI" Assay, as is well accepted in the art. A modification of the assay described by Young, et al., supra., is performed as follows:
The test materials are prepared as solutions in acetone and applied to the right ears of mice, in groups of eight (8), at hour 0. At hour 1, 2 mg of arachidonic acid in acetone solution is applied to the right ears of the mice to induce an inflammatory response. The left ears of these animals serves as negative controls. At hour 2 the mice are sacrificed; their ears are removed and 8 mm diameter full thickness plugs are cut from the tip of each ear. The plugs are weighed and the mean right and left plug weights are calculated for each group. The results are expressed as percent inhibition of ear plug weight increase relative to a positive control group receiving only acetone at hour 0.

[4] = tested on: phenylquinone-induced writhing; assay: Phenylquinone-Induced Mouse Writhing Assay "PI" (cyclooxygenase-inhibition activity); assay type: in vivo
Protocol: Cyclooxygenase-inhibition activity is determined by the Phenylquinone-Induced Mouse Writhing "PI" Assay, as is well accepted in the art. A modification of the assay described by Hendershot, et al., supra., is performed as follows:
Phenylquinone solution is prepared as follows: 4 mg of phenylquinone is dissolved in 0.5 ml of absolute ethanol, after which 19.5 ml of warmed distilled water is added. When properly prepared, all of the phenylquinone solution remains in solution. The solution is used soon after preparation.
The test materials are administered in 0.2 ml of an aqueous vehicle at hour 0 to groups of eight male Swiss-Webster (Simonsen) mice weighing about 18-20 g. At either twenty (20 ) minutes or one hundred twenty (120) minutes later, 0.25 ml of a 0.02% solution of phenylquinone is injected into each animal, to induce writhing. The animals are then observed for the next ten (10) minutes for writhing responses, and the number of writhes per animal is recorded. The mean number of writhes is calculated for each treatment group and the results are expressed as percent inhibition of writhing responses relative to a control group receiving vehicle alone.

[5] = tested on: lipoxygenase in human polymorphonuclear leukocytes; assay: Human Polymorphonuclear Leukocyte Assay "HPMN" (lipoxygenase inhibition); assay type: cell-based; conditions: dose 36.0 μg
Protocol: Lipoxygenase inhibition activity is determined in vitro by the Human Polymorphonuclear Leukocyte ("HPMN") Assay, as is well accepted in the art. A modification of the assay described by Radmark, et al., supra., is performed as follows:
1. Preparation of the cells: The HPMNs are prepared from 200-300 ml of heparinized blood of healthy donors not receiving any medication for at least 7 days, using Ficol-Hypaque gradients. In general, HPMNs are greater than 90% pure and their viability is assessed by dye-exclusion to be better than 95%. The cells are suspended in phosphate buffered saline containing 1.0 mM CaCl2 (PH 7.4) and 0.1% ovalbumin, and used within 30 minutes.
2. Lipoxygenase Assay: Incubations are carried out at 37° C. for 5 minutes in a total volume of 0.2 ml arachidonic acid 1-C^14 (1×10^-4 M unless otherwise indicated, and approximately 300,000 cpm) is added to a suspension of cells (ca 5×10^6) to initiate the reaction. […]
1.6 Ml of deionized water is added, vortexed, and centrifuged. […] The eluates are collected in scintillation vials and 1.0 ml aliquot from each of the two fractions are counted for radioactivity in a Packard liquid scintillation counter. From the radioactivity data thus obtained percent yields of total lipoxygenase products in blanks, controls and drug-containing tubes are calculated as well as percent inhibition by the test compounds.

[6] = Isomura et al., Chem. Pharm. Bull. 32(1): 152-165 (1984); cited from earlier work
[7] = phenylquinone 20 min after dose, 5.0 mg/kg
[8] = phenylquinone 20 min after dose, 15.0 mg/kg
[9] = phenylquinone 120 min after dose, 15.0 mg/kg

Compound | inhibition of hind paw weight increase ([1]; daily dose 0.4 mg/kg) [%] | inhibition of hind paw weight increase ([1]; daily dose 2.0 mg/kg) [%] | Inhibition (CI) ([2]; dose 1.0 mg/kg) [%] | Inhibition (CI) ([2]; dose 10.0 mg/kg) [%] | Inhibition (AAI), ear plug weight increase ([3]; dose 0.5 mg/ear) [%] | Inhibition (AAI), ear plug weight increase ([3]; dose 1.0 mg/ear) [%] | Inhibition (AAI), ear plug weight increase ([3]; dose 2.0 mg/ear) | Inhibition (PI), writhing responses ([4]; phenylquinone 20 min after dose, 0.1 mg/kg) [%] | Inhibition (PI), writhing responses ([4]; phenylquinone 20 min after dose, 1.0 mg/kg) [%] | Inhibition (PI), writhing responses ([4]; phenylquinone 20 min after dose, 1.5 mg/kg) [%] | Inhibition (PI), writhing responses [4, 7] [%] | Inhibition (PI), writhing responses [4, 8] | Inhibition (PI), writhing responses [4, 9] [%] | Inhibition (CI) ([2]; dose 100.0 mg/kg) [%] | Inhibition (PI), writhing responses ([4]; phenylquinone 20 min after dose, 50.0 mg/kg) | Inhibition (HPMN), total lipoxygenase products [5] [%] | anti-inflammatory activity as reported [6]
CC(C)(C)c1cc(C(=O)c2cc[nH]c2)cc(C(C)(C)C)c1O [A, 3-(3,5-di-t-butyl-4-hydroxybenzoyl)pyrrole] | 54 | 70 | 24 | 44 | 49 | 62 | 67% and 69% | 15 | 61 | 100 | 99 | 97% and 96% | 100 |  |  |  | 
CC(C)(C)c1cc(C(=O)c2ccc[nH]2)cc(C(C)(C)C)c1O [B, 2-(3,5-di-t-butyl-4-hydroxybenzoyl)pyrrole, reference compound] |  |  |  |  |  |  | 22% |  |  |  | 26 | 40% and 52% and 65% | 49 | 30 | 56% and 38% | 50 | 
Cc1[nH]ccc1-c1cc(C(C)(C)C)c(O)c(C(C)(C)C)c1 [Formula VIII] |  |  |  |  |  |  |  |  |  |  |  |  |  |  |  |  | inactive
